According to US11945822B2, “Pyrazolo-triazine and/or pyrazolo-pxrimidine derivatives as selective inhibitor of cyclin dependent kinase” (QURIENT CO., LTD., priority 2018, dated 2024):
Read-outs that look alike come from different tables or passages of the source.

What was measured:
CDK1/Cyclin B = target: T1, CDK1/Cyclin B (Homo sapiens, UniProt P06493); test: Enzymatic assay for CDK1 (FRET based LANCE Ultra kinase assay); format: biochemical
T1 construct: purchased Invitrogen PR4768C
Summary of the method: (§1)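 LANCE Ultra TR-FRET: ULight-MBP peptide (68 nM) with ATP at Km, […], 60 min at 23° C. EDTA plus Eu-anti-phospho-MBP added, another 60 min, then 665/615 nm emission read. Compounds tested as 8-dose 4-fold DMSO dilutions.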

CDK2/Cyclin A = target: T2, CDK2/Cyclin A (Homo sapiens, UniProt P24941); test: Enzymatic assay for CDK2 (FRET based LANCE Ultra kinase assay); format: biochemical
T2 construct: purchased Invitrogen PV6290
Summary of the method: as §1

CDK5/p25 = target: T3, CDK5/p25 (Homo sapiens, UniProt Q00535); test: Enzymatic assay for CDK5 (FRET based LANCE Ultra kinase assay); format: biochemical
T3 construct: purchased Invitrogen PR8543B
T3 sequence (Q00535 whole entry): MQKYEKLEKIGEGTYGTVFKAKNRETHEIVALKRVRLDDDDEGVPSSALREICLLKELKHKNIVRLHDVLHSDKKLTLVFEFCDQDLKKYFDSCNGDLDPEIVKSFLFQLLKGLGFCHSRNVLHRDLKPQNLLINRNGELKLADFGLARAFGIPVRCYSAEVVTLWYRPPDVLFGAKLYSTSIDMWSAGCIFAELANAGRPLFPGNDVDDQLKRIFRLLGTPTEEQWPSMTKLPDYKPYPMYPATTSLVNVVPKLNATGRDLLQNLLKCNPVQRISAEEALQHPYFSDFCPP
T3 sequence (Q15078 99-307 partner limits assumed): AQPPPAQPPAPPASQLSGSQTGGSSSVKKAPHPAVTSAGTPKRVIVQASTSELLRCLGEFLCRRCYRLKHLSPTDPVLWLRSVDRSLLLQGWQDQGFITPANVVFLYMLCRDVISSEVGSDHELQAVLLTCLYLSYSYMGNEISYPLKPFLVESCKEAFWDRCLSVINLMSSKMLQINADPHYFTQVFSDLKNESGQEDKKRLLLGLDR
Summary of the method: as §1

CDK7/Cyclin H/MNAT1 = target: T4, CDK7/Cyclin H/MNAT1 (Homo sapiens, UniProt P50613); test: Enzymatic assay for CDK7 (FRET based LANCE Ultra kinase assay); format: biochemical
T4 construct: purchased Invitrogen PR6749B
T4 sequence (P50613 whole entry): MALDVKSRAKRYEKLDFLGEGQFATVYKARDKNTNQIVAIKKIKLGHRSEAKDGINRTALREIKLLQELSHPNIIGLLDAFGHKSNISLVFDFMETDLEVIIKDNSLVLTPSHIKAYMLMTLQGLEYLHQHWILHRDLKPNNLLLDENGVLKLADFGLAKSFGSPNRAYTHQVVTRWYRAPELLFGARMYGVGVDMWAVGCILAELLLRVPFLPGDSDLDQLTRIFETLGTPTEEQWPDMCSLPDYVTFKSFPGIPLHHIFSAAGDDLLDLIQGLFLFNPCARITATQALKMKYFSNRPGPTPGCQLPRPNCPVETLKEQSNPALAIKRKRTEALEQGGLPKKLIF
T4 sequence (P51946 whole entry partner): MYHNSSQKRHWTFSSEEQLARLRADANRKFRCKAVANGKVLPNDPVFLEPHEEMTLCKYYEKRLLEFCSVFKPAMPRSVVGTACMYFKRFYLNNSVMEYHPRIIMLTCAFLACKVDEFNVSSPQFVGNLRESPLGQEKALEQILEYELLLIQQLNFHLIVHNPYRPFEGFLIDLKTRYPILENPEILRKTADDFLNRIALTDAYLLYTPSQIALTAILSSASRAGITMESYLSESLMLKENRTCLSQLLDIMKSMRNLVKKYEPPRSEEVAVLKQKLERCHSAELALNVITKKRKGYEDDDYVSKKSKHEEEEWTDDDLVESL
T4 sequence (P51948 whole entry partner): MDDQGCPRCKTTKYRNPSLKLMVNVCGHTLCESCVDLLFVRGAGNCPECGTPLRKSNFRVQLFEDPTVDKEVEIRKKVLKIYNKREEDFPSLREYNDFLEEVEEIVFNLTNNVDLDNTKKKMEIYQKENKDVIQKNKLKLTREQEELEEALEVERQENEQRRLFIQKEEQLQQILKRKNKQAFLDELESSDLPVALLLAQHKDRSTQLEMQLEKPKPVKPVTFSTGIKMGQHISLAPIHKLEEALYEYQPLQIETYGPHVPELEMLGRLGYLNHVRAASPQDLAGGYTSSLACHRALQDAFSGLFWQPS
Summary of the method: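 Inhibition was measured at Km ATP by time-resolved FRET between a Eu anti-phospho antibody and a phosphorylated ULight peptide. The enzyme was the purified CDK7/cyclin complex, and data were curve-fitted.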

H460 = test: Cellular H460 viability assay (CellTiter-Glo, 72 hours); format: cell-based; conditions: Homo sapiens, NCI-H460
Summary of the method: (§2)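 CellTiter-Glo luminescence read in duplicate after 72 h compound exposure (37 °C, 5% CO2); DMSO-only control, final DMSO under 0.1%.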

MV4-11 = test: Cellular MV4-11 viability assay (CellTiter-Glo, 72 hours); format: cell-based; conditions: Homo sapiens
Summary of the method: as §2

A2780 = test: Cellular A2780 viability assay (CellTiter-Glo, 72 hours); format: cell-based; conditions: Homo sapiens
Excerpt: Human T-cell acute lymphoblastic leukemia cell line, MOLT-4 (ATCC, Cat #CRL-1582), Human multiple myeloma cell line, RPMI-8226 (Invitrogen, Cat #22400-089) and MM.1S (ATCC, Cat #CRL-2974), NSCLC (Non-small cell lung cancer) cell line H460 (ATCC, Cat #HTB-177), Human colon colorectal carcinoma cell line HCT116 (ATCC, Cat #CCL-247), Human acute monocytic leukemia cell line MV4-11 (ATCC, Cat #CRL-9591), OVCAR-3 (ATCC, Cat #HTB-161) and A2780 (ECACC, Cat #93112519) were obtained from ATCC. Cells were grown in RPMI-1640 media (Invitrogen, Cat #22400-089) supplemented with 10% FBS (Invitrogen, Cat #10099141) and 1% penicillin/streptomycin (Invitrogen, Cat #15070063) and cultured at 37° C., 5% CO2 in a humidified chamber. All cell lines were routinely tested for mycoplasma.
The effect of the CDK7 inhibitor to inhibit the growth of target cancer cells was evaluated through the 72 hours time period of viability assay. Briefly, the candidate cell line ware plated in 96 well plate at the following density of cells respectively. 1×10^4 cells/well for MOLT-4, RPMI-8226, MV4-11 and MM.1S, 5×10^3 for H460, HCT116 and OVCAR-3 and IX 10^3 for A2780. After 24 hours, the cells were treated with various concentrations of the compound (ranging from 0.0015 uM to 10 uM). DMSO solvent without compound served as a control and final DMSO concentration less than 0.1%. After 72 hours of incubation at 37° C., 5% CO2 incubator, cells were analyzed for the viability using the CellTiter-Glo Luminescent Cell Viability Assay (Promega, Cat #G7570). All viability assays were performed in duplicate and Luminescence was read using an Envision (Perkin Elmer, USA). Data was analyzed using XLfit software.

HCT116 = test: Cellular HCT116 viability assay (CellTiter-Glo, 72 hours); format: cell-based; conditions: Homo sapiens, HCT-116
Summary of the method: as §2

MOLT-4 = test: Cellular MOLT-4 viability assay (CellTiter-Glo, 72 hours); format: cell-based; conditions: Homo sapiens, MOLT4 viability assay
Summary of the method: as §2

RPMI-8226 = test: Cellular RPMI-8226 viability assay (CellTiter-Glo, 72 hours); format: cell-based; conditions: Homo sapiens
Summary of the method: as §2

[1] = read-out: CDK1 enzymatic activity (IC50 activity range)
[2] = read-out: CDK2 enzymatic activity (IC50 activity range)
[3] = read-out: CDK5 enzymatic activity (IC50 activity range)
[4] = read-out: CDK7 enzymatic activity (IC50 activity range)
[5] = read-out: CDK1 enzymatic activity (IC50 range)
[6] = read-out: CDK2 enzymatic activity (IC50 range)
[7] = read-out: CDK5 enzymatic activity (IC50 range)
[8] = read-out: CDK7 enzymatic activity (IC50 range)

T1 sequence (P06493 whole entry): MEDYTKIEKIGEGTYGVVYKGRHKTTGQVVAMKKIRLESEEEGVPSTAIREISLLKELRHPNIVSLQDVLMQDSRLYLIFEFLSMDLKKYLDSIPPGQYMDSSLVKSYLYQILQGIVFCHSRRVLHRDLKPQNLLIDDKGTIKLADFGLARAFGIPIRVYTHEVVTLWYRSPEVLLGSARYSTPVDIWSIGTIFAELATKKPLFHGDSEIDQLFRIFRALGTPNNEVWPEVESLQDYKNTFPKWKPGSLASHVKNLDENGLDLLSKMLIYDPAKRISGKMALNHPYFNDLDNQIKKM
T1 sequence (P14635 whole entry partner): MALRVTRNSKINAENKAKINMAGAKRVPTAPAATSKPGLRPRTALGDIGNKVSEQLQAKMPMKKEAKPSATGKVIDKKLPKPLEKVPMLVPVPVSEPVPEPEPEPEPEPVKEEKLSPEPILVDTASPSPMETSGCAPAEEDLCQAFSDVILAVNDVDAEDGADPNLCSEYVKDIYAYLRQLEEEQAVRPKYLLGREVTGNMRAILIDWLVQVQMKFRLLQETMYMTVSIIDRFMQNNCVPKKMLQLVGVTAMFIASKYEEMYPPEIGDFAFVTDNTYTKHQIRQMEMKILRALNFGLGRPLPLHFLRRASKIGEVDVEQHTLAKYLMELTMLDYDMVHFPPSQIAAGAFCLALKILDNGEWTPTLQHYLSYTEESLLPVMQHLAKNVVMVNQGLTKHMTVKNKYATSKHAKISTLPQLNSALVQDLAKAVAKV

SMILES | IC50 (CDK1/Cyclin B; [1]) | IC50 (CDK2/Cyclin A; [2]) | IC50 (CDK5/p25; [3]) | CDK1/CDK7: Selectivity of CDK7 inhibition over CDK1 inhibition (CDK7/Cyclin H/MNAT1; CDK1/CDK7) | CDK2/CDK7: Selectivity of CDK7 inhibition over CDK2 inhibition (CDK7/Cyclin H/MNAT1; CDK2/CDK7) | CDK5/CDK7: Selectivity of CDK7 inhibition over CDK5 inhibition (CDK7/Cyclin H/MNAT1; CDK5/CDK7) | IC50 (CDK7/Cyclin H/MNAT1; [4]) | IC50 (H460) | IC50 (MV4-11) | IC50 (A2780) | IC50 (CDK1/Cyclin B; [5]) | IC50 (CDK2/Cyclin A; [6]) | IC50 (CDK5/p25; [7]) | CDK1/CDK7: Selectivity of CDK7 inhibition over CDK1 inhibition (CDK7/Cyclin H/MNAT1; CDK7 over CDK1) | CDK2/CDK7: Selectivity of CDK7 inhibition over CDK2 inhibition (CDK7/Cyclin H/MNAT1; CDK7 over CDK2) | CDK5/CDK7: Selectivity of CDK7 inhibition over CDK5 inhibition (CDK7/Cyclin H/MNAT1; CDK7 over CDK5) | IC50 (CDK7/Cyclin H/MNAT1; [8]) | IC50 (HCT116) | IC50 (MOLT-4) | IC50 (RPMI-8226)
CCC(O)(CC)c1ccn(-c2cccc(Cl)c2CNc2nc(N3CCC(N)CC3)nc3c(C(C)C)cnn23)n1 [Compound 253] | > 1000 nM | > 1000 nM | > 1000 nM | B (B=less than 200 fold, but greater than 20 fold) | B (B=less than 200 fold, but greater than 20 fold) | B (B=less than 200 fold, but greater than 20 fold) | 100 to 1000 nM | 1000 to 10000 nM | 1000 to 10000 nM | 1000 to 10000 nM | – | – | – | – | – | – | – | – | – | –
Cc1cn(-c2cccc(Cl)c2CNc2nc(N3CCC(N)CC3)nc3c(C(C)C)cnn23)nc1C(C)(C)O [Compound 256] | > 1000 nM | > 1000 nM | > 1000 nM | A (A=greater than 200 fold) | A (A=greater than 200 fold) | A (A=greater than 200 fold) | < 100 nM | < 1000 nM | < 1000 nM | ≤ 1000 nM | – | – | – | – | – | – | – | – | – | –
CC(C)c1cnn2c(NCc3ccccc3-c3ccc4ccccc4n3)nc(NC[C@@H](O)CN)nc12 [Compound 248] | – | – | – | – | – | – | – | < 1000 nM | 1000 to 10000 nM | ≤ 1000 nM | > 1000 nM | > 1000 nM | > 1000 nM | A (A=greater than 200 fold) | A (A=greater than 200 fold) | A (A=greater than 200 fold) | < 100 nM | – | – | –
CC(C)c1cnn2c(NCc3cccc4ccc(C(C)(C)O)nc34)nc(N3CCC(N)CC3)nc12 [Compound 255] | > 1000 nM | > 1000 nM | 100 to 1000 nM | A (A=greater than 200 fold) | A (A=greater than 200 fold) | B (B=less than 200 fold, but greater than 20 fold) | < 100 nM | < 1000 nM | < 1000 nM | ≤ 1000 nM | – | – | – | – | – | – | – | – | – | –
CC(C)c1cnn2c(NCc3ccccc3-c3ccc4ccccc4n3)nc(OC3CCC(O)CC3)nc12 (stereo not shown) [Compound 269] | > 1000 nM | > 1000 nM | > 1000 nM | A (A=greater than 200 fold) | A (A=greater than 200 fold) | A (A=greater than 200 fold) | < 100 nM | < 1000 nM | 1000 to 10000 nM | ≤ 1000 nM | – | – | – | – | – | – | – | – | – | –
CC(C)c1cnn2c(NCc3ccccc3-c3ccc4ccccc4n3)nc(N3CCCC[C@H]3CO)nc12 [Compound 263] | > 1000 nM | > 1000 nM | > 1000 nM | B (B=less than 200 fold, but greater than 20 fold) | B (B=less than 200 fold, but greater than 20 fold) | B (B=less than 200 fold, but greater than 20 fold) | 100 to 1000 nM | > 10000 nM | > 10000 nM | > 10000 nM | – | – | – | – | – | – | – | – | – | –
CC(C)c1cnn2c(NCc3ccccc3-c3ccc4ccccc4n3)nc(O[C@H]3CC[C@H](O)CC3)nc12 [Compound 273] | > 1000 nM | > 1000 nM | > 1000 nM | A (A=greater than 200 fold) | A (A=greater than 200 fold) | A (A=greater than 200 fold) | < 100 nM | 1000 to 10000 nM | 1000 to 10000 nM | 1000 to 10000 nM | – | – | – | – | – | – | – | – | – | –
CC(C)c1cnn2c(NCc3ccccc3-c3ccc4ccccc4n3)nc(NCC[C@H](O)CN)nc12 [Compound 247] | – | – | – | – | – | – | – | 1000 to 10000 nM | 1000 to 10000 nM | 1000 to 10000 nM | > 1000 nM | > 1000 nM | > 1000 nM | A (A=greater than 200 fold) | A (A=greater than 200 fold) | A (A=greater than 200 fold) | < 100 nM | – | – | –
CC(C)c1cnn2c(NCc3ccccc3-c3ccc4ccccc4n3)nc(O[C@H]3CC[C@@H](O)CC3)nc12 [Compound 272] | > 1000 nM | > 1000 nM | > 1000 nM | A (A=greater than 200 fold) | A (A=greater than 200 fold) | A (A=greater than 200 fold) | < 100 nM | 1000 to 10000 nM | 1000 to 10000 nM | 1000 to 10000 nM | – | – | – | – | – | – | – | – | – | –
CC(C)c1cnn2c(NCc3c(Cl)cccc3-c3cc(C(C)(C)O)nn3C)nc(N3CCC(N)CC3)nc12 [Compound 258] | > 1000 nM | > 1000 nM | > 1000 nM | A (A=greater than 200 fold) | A (A=greater than 200 fold) | A (A=greater than 200 fold) | < 100 nM | < 1000 nM | < 1000 nM | ≤ 1000 nM | – | – | – | – | – | – | – | – | – | –
CC(C)c1cnn2c(NCc3ccccc3-c3nc4ccccc4[nH]3)nc(N3CCC(N)CC3)nc12 [Compound 98] | – | – | – | – | – | – | – | < 1000 nM | < 1000 nM | – | 100 to 1000 nM | 100 to 1000 nM | < 100 nM | A (A=greater than 200 fold) | B (B=less than 200 fold, but greater than 20 fold) | B (B=less than 200 fold, but greater than 20 fold) | < 100 nM | < 1000 nM | < 1000 nM | < 1000 nM
NC1CCN(c2nc(NCc3ccccc3-n3cccn3)n3ncc(Br)c3n2)CC1 [Compound 18] | – | – | – | – | – | – | – | < 1000 nM | < 1000 nM | – | 100 to 1000 nM | 100 to 1000 nM | < 100 nM | B (B=less than 200 fold, but greater than 20 fold) | B (B=less than 200 fold, but greater than 20 fold) | C (C=less than 20 fold) | < 100 nM | < 1000 nM | 1000 to 10000 nM | < 1000 nM
CC(C)c1cnn2c(NCc3c(Cl)cccc3-n3ccc(C(C)(C)O)n3)nc(Nc3cccc4[nH]ccc34)nc12 [Compound 276] | > 1000 nM | > 1000 nM | > 1000 nM | B (B=less than 200 fold, but greater than 20 fold) | B (B=less than 200 fold, but greater than 20 fold) | B (B=less than 200 fold, but greater than 20 fold) | > 1000 nM | – | < 1000 nM | 1000 to 10000 nM | – | – | – | – | – | – | – | – | – | –
